Data set [1] relates to CWR-22Rv1, LAPC-4, LNCaP and HUVEC cells. Description: Nuclear drug uptake in 3 prostate cancer lines and HUVEC. In kind it is cell-based, human. From the text:
To determine the total nuclear concentration of drug (Nt), a modified protocol was needed to allow the rapid lyses of cells and rapid isolation of cell nuclei by differential centrifugation. This could not be accomplished using the usual method of detergent lyses because detergents extract bound drug due to its lipophilicity. Therefore, a detergent free protocol using nitrogen cavitation was developed to rapidly lyse cells and allow the rapid isolation of nuclei via differential centrifugation. Using this cavitation protocol, it was documented that within 1 hour, total nuclear drug concentration (Nt) equals that of the protein-free drug concentration in the media (i.e., 0.2 μM), and that after 4 hours equals PMt (i.e., see Figure 3B, right panel for representative results for the CWR-22Rv1 cells). From 8 hours onward, Nt is more than 10 fold higher than the free and 2 fold higher than the total drug concentration in the media, Figure 3B, right panel. For example at 24 hours post exposure to 1 μM tasquinimod in 10% FBS containing media, the Nt is 2.4 ± 0.3 μM, Figure 3B, right panel. At this 24 hours period, total radioactive drug in isolated nuclei from all 3 prostate cancer lines, as well as HUVEC cells (i.e., nuclear concentration in these 4 lines ranged from 2.2-3.1 μM) was extracted with acetonitrile and the extracts analyzed by HPLC. […] To resolve this, nuclear uptake was determined 24 hours post exposure to 1 μM tasquinimod in serum free media. These studies again documented that nuclear tasquinimod concentration in these 4 cell lines ranged from 2.5-3.5 μM documenting that binding to albumin is not required for cell uptake.
To specifically determine the concentration of tasquinimod within the cell nucleus, 10^7 cells were incubated in 1ml of tissue culture media containing 10% fetal bovine serum (FBS) plus 1μM ^14C-labeled tasquinimod for varying times before the cells were centrifuged rapidly (i.e., 1000xG for 2 min) to remove the drug containing media. The cells were rapidly resuspended in phosphate buffered saline and exposed to pressurized (i.e., 500lbs/sq in) N2 in a nitrogen cavitation devise (i.e., Parr bomb, Parr Instrument Company, Moline, Il) for 5 min before the plasma membranes were lysed by the rapid release of the pressure. This detergent free procedure lyses >98% of the cells without disrupting either mitochondria or lysosomes. […] The radioactivity of this pellet was counted and used to calculate the total amount of tasquinimod associated with 10^7 cell nuclei. To determine the nuclear drug concentration, this total nuclear drug amount was […] the total volume of 10^7 cell nuclei determined from the average diameter of the nuclei determined electronically using Cellometer AutoT4.

Data set [2] relates to metastatic, castrate resistant prostate cancer. The arrangement: method as in PMID 21931019, PMID 24255071. The following applies: vs placebo; cited from earlier work.
A short description of data set [3]: Protein binding fraction (PBF) in human plasma. In kind it is in vitro ADME. The following applies: 1-50 μM radiolabeled tasquinimod. The protocol:
An explanation for this highly restricted cellular uptake in the blood is provided by the fact that protein binding fraction (PBF) for tasquinimod in nude mouse plasma is 98 ± 1%. This is not a nude mouse specific effect since incubation of 1-50 μM radiolabeled tasquinimod with human plasma or bovine fetal serum (FBS) results in a PBF of ~ 98%.
Mice were orally gavaged with ^14C-labeled tasquinimod at a dose of 5mg/kg and 1 hour later blood collected and plasma isolated and the PBF determined as described previously using Centrifree® YM-30 centrifuge filter unit with a molecular weight cutoff of 30K (i.e., Millipore, Billerica,MO).

For data set [4], the system named is CWR-22RH human prostate cancer. Kind of data set: Tumor take of CWR-22RH xenografts in castrated nude mice. In kind it is in vivo, mouse. The following applies: tasquinimod alone 10mg/kg/day via drinking water from inoculation. As to the method:
To confirm this conclusion, castrated male nude mice were xenografted with the castrate resistant CWR-22RH human prostate cancer tissue and the animals immediately randomized into groups (n=10) which were: 1) left untreated as controls; 2) given daily oral treatment with tasquinimod alone via the drinking water (10mg/kg/day); 3) given oral ketoconazole alone via oral gavage at a daily dose which inhibits cytochrome P450 3A4 (i.e., 25 mg/kg/day); or 4) given a combination of the two drugs. […] These combined in vitro/in vivo results document tasquinimod, not one of its metabolites, is the active drug.
The source, history, and characteristics of the human prostate cancer cell lines (i.e., LNCaP, LAPC4, and CWR-22Rv1 and the human umbilical vascular endothelial cells (HUVEC) used, as well as cell culture conditions for their in vitro maintenance and the in vivo protocol for their xenografting into immune-deficient nude male mice are as described previously. The source, history, and characteristics of the TRAMP-C2 mouse prostate cancer line, as well as cell culture conditions for their in vitro maintenance and the in vivo protocol for their growth in intact adult male syngeneic C57Bl/6J are as described previously. All lines were mycoplasma negative using the MycoSensor PCR Assay kit (Agilent Technologies) and genetically authenticated within the last 6 months using short tandem repeat profiling conducted by the Johns Hopkins Genetic Resource Core Facility. The source, history, and characteristics of the CWR-RH human prostate cancer xenograft are as described previously. In vitro growth curves were determined as described. Animal studies were conducted according to animal protocol MO09M434 approved by Johns Hopkins Animal Care and Use Committee. Daily drug dosing via oral gavage, the drinking water, or subcutaneous injection, as well as tumor volume measurements and determination of the blood vessel density within cancers, were as described previously. These experiments were repeated at 3 independent times for each xenograft.

The conditions of data set [5]: cited from earlier work.

By fraction unbound is commonly meant the share of the substance not bound to proteins or other matrix. Higher therefore signals much free substance. Consider `COc1cccc2c1c(O)c(C(=O)N(C)c1ccc(C(F)(F)F)cc1)c(=O)n2C` [Tasquinimod], for which the “nuclear concentration, range over 4 lines” value in data set [1] (24 hours, 1 μM in 10% FBS media) lay within 2.2 to 3.1 µM. Further, the “nuclear tasquinimod concentration, range over 4 cell lines” value in data set [1] (24 hours, 1 μM in serum free media) was in the range of 2.5 to 3.5 µM. The “drug present within nuclei that is non-metabolized tasquinimod” value in data set [1] (24 hours, each of 4 cell lines, HPLC) was over 95%. The compound also displayed an intracellular drug concentration in data set [1] (exposure of cancer and endothelial cells to 0.5-1μM) of 2 to 3 µM. The median progression-free survival result in data set [2] is given as “doubles”. For the same compound, the fraction unbound in data set [3] is about 0.02. Moreover, in data set [4], the “tumor take and subsequent malignant growth” value is “prevents tumor take”. In data set [5] (chronic daily oral dosing, 1 mg (0.5-1 mg/day), clinical trials), the “blood (plasma) level maintained” value is recorded as ~ 0.5 μM. In addition, in data set [5] (clinical trials), the plasma half-life was 40 ± 16 h and the “plasma levels at which systemic anti-cancer potency occurs” value is 500 to 1000 nM. Also, the “bioavailability and oral absorption” value in data set [5] (daily dose as liquid or gelatin capsule) is “excellent”.
